From patent US9029542B2 (priority 2011, dated 2015)
Where “and” joins values, the source holds several entries; their conditions need not be identical. Identical values can stand only once. Like-named read-outs stand apart in the source and are kept apart here.

Experiments:
rice = conditions: in vivo
corn = conditions: in vivo
[1] = system: weeds of the expanded weed killing spectrum; conditions: in vivo
rape [2] = assay: whole plant or invertebrate; assay type: in vivo; conditions: 120 h
rape [3] = conditions: in vivo
Amaranthus retroflexus = assay: whole plant or invertebrate; assay type: in vivo
Capsella bursa-pastoris = assay: whole plant or invertebrate; assay type: in vivo; conditions: 600 h, read-out: weed clearing activity, Capsella bursa-pastoris Postemergence
cotton = conditions: in vivo
Wheat = conditions: in vivo
Eclipta prostrata = assay: whole plant or invertebrate; assay type: in vivo
cockspur grass = assay: whole plant or invertebrate; assay type: in vivo; conditions: Echinochloa crus-galli, 120 h
soybean = conditions: in vivo
[4] = read-out: weed clearing activity, rape Root (Effect)
[5] = read-out: weed clearing activity, rape Stem (Effect)
[6] = Amaranthus retroflexus, 600 h, read-out: weed clearing activity, Amaranthus retroflexus Postemergence
[7] = Eclipta prostrata, 600 h, read-out: weed clearing activity, Eclipta prostrata Postemergence
[8] = read-out: weed clearing activity, cockspur grass Root (Effect)
[9] = read-out: weed clearing activity, cockspur grass Stem (Effect)

Question: Which results are given for `CC(OC(=O)COc1ccc(Cl)cc1Cl)P1(=O)OCC(C)(C)CO1` (stereo not shown) [Compound 11, 2-(2,4-dichlorophenoxyethylacyloxy)(methyl)methyl-5,5-dimethyl-1,3,2-dioxaphosphorinan-2-one phosphonate]?
Answer: Inhibitory activity on the crops, Rice (rice): 10; Inhibitory activity on the crops, Corn (corn): 0; Activity of expanded weed killing spectrum, Abutilon theophrasti [1]: 70% and 75%; Activity of expanded weed killing spectrum, Alligator alternanthera [1]: 60%; Activity of expanded weed killing spectrum, Cayenne pepper [1]: 70% and 75%; Activity of expanded weed killing spectrum, Cucumis sativus [1]: 40% and 50%; Activity of expanded weed killing spectrum, Pakchoi [1]: 85%; Activity of expanded weed killing spectrum, Pigweed [1]: 85%; Activity of expanded weed killing spectrum, Tomato [1]: 70% and 75%; plant injury at 10 µg/g (rape [2]; [4]): 99%; plant injury at 100 µg/g (rape [2]; [4]): 99%; plant injury at 10 µg/g (rape [2]; [5]): 88%; plant injury at 100 µg/g (rape [2]; [5]): 92%; Inhibitory activity on the crops, Rape (rape [3]): 40; pest or weed control at 37.5 g/ha (Amaranthus retroflexus; [6]): 70%; pest or weed control at 75 g/ha (Amaranthus retroflexus; [6]): 90%; pest or weed control at 150 g/ha (Amaranthus retroflexus; [6]): 80%; weed clearing activity, Amaranthus retroflexus Postemergence (※) (Amaranthus retroflexus; in vivo): 100^※ %; weed clearing activity, Amaranthus retroflexus Postemergence, value in parentheses (Amaranthus retroflexus; in vivo): 90(70) %; pest or weed control at 37.5 g/ha (Capsella bursa-pastoris): 90%; pest or weed control at 75 g/ha (Capsella bursa-pastoris): 100%; pest or weed control at 150 g/ha (Capsella bursa-pastoris): 100%; Inhibitory activity on the crops, Cotton (cotton): 30; Inhibitory activity on the crops, Wheat (Wheat): 0; pest or weed control at 37.5 g/ha (Eclipta prostrata; [7]): 50%; pest or weed control at 75 g/ha (Eclipta prostrata; [7]): 85%; pest or weed control at 150 g/ha (Eclipta prostrata; [7]): 70%; weed clearing activity, Eclipta prostrata Postemergence (※) (Eclipta prostrata; in vivo): 90^※ %; weed clearing activity, Eclipta prostrata Postemergence, value in parentheses (Eclipta prostrata; in vivo): 85(70) %; pest or weed control at 10 µg/g (cockspur grass; [8]): 100%; pest or weed control at 100 µg/g (cockspur grass; [8]): 100%; pest or weed control at 10 µg/g (cockspur grass; [9]): 55%; pest or weed control at 100 µg/g (cockspur grass; [9]): 57%; Inhibitory activity on the crops, Soybean (soybean): 30
